Measurements as given in the METLIN SMRT retention time set (Domingo-Almenara et al. 2019).

Experiment: gradient 5% acetonitrile 3 min, to 50% in 2 min, to 85% in 15 min, held 3 min, 100 µL/min
Settings: column: Zorbax Extend-C18 2.1 x 50 mm; eluents: water / acetonitrile, 0.1% formic acid
How it was run: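 The mobile phases were water and acetonitrile, each with 0.1% formic acid, pumped at 100 μL/min through a Zorbax Extend-C18 column (2.1 × 50 mm, 1.8 μm). Pure standards were injected as mixtures of ~100 molecules and detected by a quadrupole time-of-flight mass spectrometer in positive and negative ionization mode. Retention time came from computationally picked adduct peaks, each inspected by hand.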

CC(C)c1nnc(C2CCN(C(=O)c3ccc(S(=O)(=O)N4CCOCC4)cc3)CC2)o1
RP-LC retention time: 659 s

COc1ccc(CCNC(=O)NC(C)Cc2cccs2)cc1 (configuration not stated)
RP-LC retention time: 781 s

c1ccc(-c2nc3cc(-c4noc(-c5ccccn5)n4)ccc3o2)cc1
RP-LC retention time: 1120 s

COc1cc(-c2nc3ccc(C)cn3c2Nc2ccccc2C)ccc1O
RP-LC retention time: 661 s

Cc1ccc(-c2nc3nc(C)cc(N4CCOCC4)n3n2)cc1
RP-LC retention time: 763 s

Cc1ccc(NC(=O)N2CCC(n3cnc4cc(Cl)ccc4c3=O)CC2)cc1F
RP-LC retention time: 904 s

COc1ccc(CCNC(=O)C2CCN(S(=O)(=O)N(CC(C)C)CC(C)C)CC2)cc1OC
RP-LC retention time: 992 s

CCc1nnc2ccc(NC(=O)Nc3cccc(F)c3)cn12
RP-LC retention time: 710 s

c1ccc(-c2nc3nccc(-c4cccc5ccccc45)n3n2)cc1
RP-LC retention time: 995 s

COc1cn(CC(=O)Nc2cc(C)on2)c(CN2CCCCC2)cc1=O
RP-LC retention time: 566 s

COCCN1C(=O)c2ccccc2C(C(=O)Nc2cccc(C)n2)C12CCCCC2 (configuration not stated)
RP-LC retention time: 828 s

Cc1ccc(NC(=O)N2CCN(c3cnn4c(C)nnc4c3)CC2)cc1Cl
RP-LC retention time: 674 s

COc1ccc(NC(=O)NCC(c2cccnc2)c2cn(C)c3ccccc23)cc1 (configuration not stated)
RP-LC retention time: 678 s

NS(=O)(=O)c1ccc(NC(=O)CN2C(=O)S/C(=C\C=C\c3ccccc3)C2=O)cc1
RP-LC retention time: 808 s

O=C(NCc1cccnc1)C1CCc2sc(C(=O)N3CCOCC3)cc2C1 (configuration not stated)
RP-LC retention time: 526 s

CC(=O)Nc1ccc(CCc2nc3ccc(C(=O)NCc4ccc(C)o4)cc3[nH]2)cc1
RP-LC retention time: 606 s

O=C(Nc1cccc2ccccc12)N1CCOCC1
RP-LC retention time: 639 s

COc1ccc(-c2nc(-c3ccc4c(c3)oc(=O)n4C(C)C)no2)cc1OC
RP-LC retention time: 1070 s

CCn1c(C(=O)NC2CCCC2)cc2sc(Cl)cc21
RP-LC retention time: 1110 s

Cc1nn(CC(=O)NCCc2c[nH]c3ccc(Cl)cc23)c(=O)c2noc(C)c12
RP-LC retention time: 766 s

Cc1c(CC(=O)N2CCC(C(N)=O)CC2)c(=O)oc2cc3oc4c(c3cc12)CCCC4
RP-LC retention time: 764 s

O=C(Cc1ccccc1Cl)NC1CCN(c2cc(-c3ccc(F)cc3)[nH]n2)C1 (configuration not stated)
RP-LC retention time: 775 s

CCCN1C(=O)COc2ccc(-c3noc(Cc4cccc(F)c4)n3)cc21
RP-LC retention time: 1100 s

CC(C)C(=O)N1CCN(c2ccc(=O)n(-c3ccc(Cl)cc3)n2)CC1
RP-LC retention time: 767 s

CN(C)c1cccc(-c2nc(-c3ccc4c(c3)nnn4CCC(=O)N3CCCC3)no2)c1
RP-LC retention time: 990 s

CCn1c(CCNC(=O)c2ccc(OC)c(F)c2)nc2cccnc21
RP-LC retention time: 622 s

CN1CCN(CCNC(=O)c2ccc3ccnc(N4CCN(c5ccc(F)cc5)CC4)c3c2)CC1
RP-LC retention time: 580 s

Cc1ccc(CNC(=O)c2cc3n(n2)CC(C)(C(=O)NCc2ccccc2)N(C)C3=O)cc1 (configuration not stated)
RP-LC retention time: 766 s

O=C(CN1C(=O)C(C(=O)N2CCCC2)Sc2ccccc21)N1CC=C(c2ccccc2)CC1 (configuration not stated)
RP-LC retention time: 897 s

Cc1cc(-c2c(C)sc(C)c2S(=O)(=O)Nc2cccc(Br)c2)n[nH]1
RP-LC retention time: 1100 s

Cc1cc(C2CCCN2C(=O)Cc2ccccc2Cl)no1 (configuration not stated)
RP-LC retention time: 804 s

O=C(NCCOc1ccc(F)cc1)NCc1ccc(Cl)cc1
RP-LC retention time: 850 s

Cc1ccccc1NS(=O)(=O)c1ccc(-c2nnc(C3CCC3)o2)o1
RP-LC retention time: 909 s

Cc1cccc(CNC(=O)C2CCCN(c3nnc(C)c4c(C)n(-c5ccccc5)nc34)C2)c1 (configuration not stated)
RP-LC retention time: 745 s

COCCCNC(=O)C1CCN(c2ccc(Sc3cccc(F)c3)nn2)CC1
RP-LC retention time: 675 s

Cc1ccc(-c2noc(-c3cccnc3N3CCN(Cc4ccccc4)CC3)n2)cc1
RP-LC retention time: 823 s

CC(C)Cn1ccc2c(cc(C(=O)NCc3cc(F)cc(F)c3)n2C)c1=O
RP-LC retention time: 850 s

Cc1ccc2nc(-c3ccccc3Cl)c(Nc3ccc(Cl)cc3)n2c1
RP-LC retention time: 780 s

O=[N+]([O-])c1cccnc1Oc1cc(Cl)c(Cl)cc1Cl
RP-LC retention time: 1220 s

Cc1ccccc1NS(=O)(=O)c1cc2[nH]c(=O)[nH]c2cc1C
RP-LC retention time: 679 s

COc1ccc(-c2nnc(-c3cc(S(=O)(=O)NCc4cccs4)ccc3Cl)o2)cc1
RP-LC retention time: 1040 s

O=C(Nc1nccs1)C1CCN(Cc2noc(-c3ccc(F)cc3)n2)CC1
RP-LC retention time: 643 s

COc1ccc(-c2cn3c(CC(=O)N(Cc4cccs4)C4CCCCC4)csc3n2)cc1OC
RP-LC retention time: 931 s

Cc1cc2c(cc1S(=O)(=O)N1CCCC1C(=O)N(Cc1ccccc1)C(C)C)OCC(=O)N2 (configuration not stated)
RP-LC retention time: 837 s

Cc1cc(F)cc2c(=O)c3c([nH]c12)CCN(CC(=O)Nc1cccc(F)c1)C3
RP-LC retention time: 620 s

CCOC(=O)c1cc(C2CC2)nc2c1c(=O)n(Cc1ccc(Br)cc1F)c(=O)n2C
RP-LC retention time: 1270 s

Cc1cnc(CC2CCN(C(=O)C3CCC3)C2)n1C(C)C (configuration not stated)
RP-LC retention time: 585 s

COc1ccc(-c2nc3ccc(Cl)cn3c2Nc2ccc(C)cc2)cc1
RP-LC retention time: 838 s

O=C(NCCC1CCN(C(=O)Nc2ccccc2)CC1)c1ccsc1
RP-LC retention time: 749 s

Cc1nc2cc(-c3noc(CNC(=O)Cc4ccccc4)n3)ccc2o1
RP-LC retention time: 780 s

COc1cc(NC(=O)[C@@H]2COCC(=O)N2Cc2ccc(OC)cc2OC)cc(OC)c1
RP-LC retention time: 702 s

O=C(c1cccs1)N1CCCC1c1nc(-c2ccccc2)n[nH]1 (configuration not stated)
RP-LC retention time: 704 s

O=C(Nc1ccc2c(c1)OCO2)C(=O)c1cccn1Cc1ccccc1
RP-LC retention time: 986 s

Cc1cc2c(c(=O)n(-c3ccccc3)c(=O)n2CC(=O)Nc2cccc(F)c2)n1C
RP-LC retention time: 837 s

O=C(NCCn1nc(-n2cccn2)ccc1=O)c1cc2ccccc2o1
RP-LC retention time: 669 s

CC(C(=O)NCc1nc2ccccc2[nH]1)n1nc(-c2cccs2)ccc1=O (configuration not stated)
RP-LC retention time: 576 s

Cc1cc(Cl)ccc1NC(=O)NCC1CCOCC1
RP-LC retention time: 788 s

O=C(NC1CC1)[C@@H]1C[C@H](Oc2cccnc2)CN1C(=O)CC1CCCC1
RP-LC retention time: 605 s

Cn1c(=O)c(C(=O)NC2CC2)nc2ccccc21
RP-LC retention time: 644 s

CCN1C(=O)c2cccnc2Sc2cc(NC(=O)c3ccc(Cl)s3)ccc21
RP-LC retention time: 932 s

CCn1cnc2ccc(-c3noc(-c4ccc(OC)c(OC)c4)n3)cc21
RP-LC retention time: 698 s

O=C(NCc1ccc(F)cc1Cl)c1cc(C2CC2)n2nccc2n1
RP-LC retention time: 1010 s

O=C(c1cc2cc(Br)ccc2[nH]1)N1CCCC1
RP-LC retention time: 905 s

CCCC(C)NC(=O)c1ccc(Cl)c(Cl)c1 (configuration not stated)
RP-LC retention time: 1130 s

O=C(Cc1cc(-c2ccco2)on1)NCc1ccccn1
RP-LC retention time: 581 s

CCOc1cc(CNc2ccc3[nH]c(=O)[nH]c3c2)cc(Br)c1OC
RP-LC retention time: 677 s

CSc1nc2ccc3nc(NC(=O)c4cnccn4)sc3c2s1
RP-LC retention time: 927 s

CCc1nc2cc(N3CCCC(C(=O)NCCN4CCOCC4)C3)cnc2nc1CC (configuration not stated)
RP-LC retention time: 594 s

CN(C)C(=O)c1nc2ccccn2c1-c1ccc(Cl)cc1
RP-LC retention time: 674 s

CCOC(=O)CC(=O)Nc1cc2c(cc1N1CCCC1)n(C)c(=O)n2C
RP-LC retention time: 587 s

COc1ccc(Cl)cc1NC(=O)N1C[C@@H](F)C[C@H]1C(=O)N1CCc2ccccc2C1
RP-LC retention time: 933 s

O=C(NCCOc1ccc(F)cc1)c1ccc2nsnc2c1
RP-LC retention time: 786 s

O=C(c1cnccn1)N1CCCn2nc(-c3cccs3)cc2C1
RP-LC retention time: 689 s

Cc1c(Cl)cccc1Nc1c(-c2ccc3c(c2)OCO3)nc2cnccn12
RP-LC retention time: 975 s

CC1Oc2ccc(-c3csc(NC(=O)c4cccs4)n3)cc2NC1=O (configuration not stated)
RP-LC retention time: 839 s

COc1ccc2c(=O)c(Oc3ccccc3F)c(C)oc2c1
RP-LC retention time: 888 s

O=C(Nc1ccc2c(c1)OCCO2)NC1CCN(c2ccccc2)C1=O (configuration not stated)
RP-LC retention time: 720 s

CC(COc1ccccc1Cc1ccccc1)N1CCCCC1 (configuration not stated)
RP-LC retention time: 852 s

O=C(NCC1CCOCC1)Nc1ccc(F)cc1
RP-LC retention time: 670 s

CCN1C(=O)Cc2cc(C(=O)NCc3ccc(Br)cc3)ccc21
RP-LC retention time: 807 s

Cc1nc(-c2ccc(-c3noc(-c4cncc(Br)c4)n3)cc2)cs1
RP-LC retention time: 1250 s

COc1ccc(S(=O)(=O)N2CCCC(C(=O)NCc3cccnc3)C2)cc1C (configuration not stated)
RP-LC retention time: 623 s

COC(=O)c1cc(S(=O)(=O)N2CCCC2C(=O)Nc2cccc(F)c2)cn1C (configuration not stated)
RP-LC retention time: 883 s

O=C(c1cccc(F)c1)N1CCN(c2cc(-c3cccs3)[nH]n2)CC1
RP-LC retention time: 774 s

Cc1ccc(N2CCC(NC(=O)Nc3cccc(C)c3C)C2=O)cc1C (configuration not stated)
RP-LC retention time: 906 s

COC(=O)C(N)Cc1ccc(Cl)cc1 (configuration not stated)
RP-LC retention time: 653 s

CC12CC(NC(=O)N1c1cccc(C(=O)N3CCOCC3)c1)c1ccccc1O2 (configuration not stated)
RP-LC retention time: 663 s

O=C(c1ccco1)N1CCCn2cc(-c3ccc4c(c3)OCO4)nc21
RP-LC retention time: 661 s

O=C(NCCCn1c(C(F)(F)F)nc2cccnc21)Nc1cccc(F)c1
RP-LC retention time: 811 s

CCn1ccc(C(=O)Nc2cc(Cl)ccc2Cl)n1
RP-LC retention time: 1140 s

O=C(c1ccccc1C(F)(F)F)N1CCC2(C1)C(=O)Nc1ccccc12 (configuration not stated)
RP-LC retention time: 743 s

CCc1ccc(S(=O)(=O)Nc2cccc(-c3cn4c(C)cccc4n3)c2)cc1
RP-LC retention time: 667 s
